According to PMC4907692, “Engineering vanilloid-sensitivity into the rat TRPV2 channel” (eLife, 2016):

What was measured:
[1] = biological target: T1, 1D4-tagged TRPV2 QM (Rattus norvegicus, UniProt Q9WUD2, F472S/L507M/L510T/Q530E); assay: 3H-RTx binding to yeast membranes containing 1D4-tagged TRPV2 QM
T1 construct: made in house; host or cells: S. cerevisiae BJ5457, isolated membranes
T1 sequence (Q9WUD2 1-761 F472S/L507M/L510T/Q530E): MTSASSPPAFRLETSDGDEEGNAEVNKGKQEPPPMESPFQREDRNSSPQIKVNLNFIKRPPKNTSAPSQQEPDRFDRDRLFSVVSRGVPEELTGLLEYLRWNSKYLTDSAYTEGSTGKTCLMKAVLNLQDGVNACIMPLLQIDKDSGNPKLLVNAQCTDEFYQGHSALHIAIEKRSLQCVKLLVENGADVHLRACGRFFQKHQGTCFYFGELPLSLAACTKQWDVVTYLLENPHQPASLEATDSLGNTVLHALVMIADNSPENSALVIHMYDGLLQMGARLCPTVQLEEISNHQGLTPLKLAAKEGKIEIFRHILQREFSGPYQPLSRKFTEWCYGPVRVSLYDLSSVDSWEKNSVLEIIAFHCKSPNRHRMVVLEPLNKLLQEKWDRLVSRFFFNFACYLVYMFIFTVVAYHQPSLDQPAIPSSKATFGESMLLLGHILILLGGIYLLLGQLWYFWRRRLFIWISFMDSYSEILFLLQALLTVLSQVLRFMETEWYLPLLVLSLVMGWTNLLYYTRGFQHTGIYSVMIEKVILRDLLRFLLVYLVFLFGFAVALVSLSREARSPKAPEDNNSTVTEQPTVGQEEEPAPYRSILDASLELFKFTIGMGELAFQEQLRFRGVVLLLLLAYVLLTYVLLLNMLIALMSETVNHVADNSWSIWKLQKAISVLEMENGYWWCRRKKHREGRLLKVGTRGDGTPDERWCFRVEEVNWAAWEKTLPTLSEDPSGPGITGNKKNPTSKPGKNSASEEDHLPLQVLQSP
Text: To examine the strength of RTx binding to the TRPV2 channel, we undertook binding assays after expressing 1D4-tagged TRPV2 and TRPV2 QM in S. cerevisiae and isolating yeast membranes, similar to the experiments described above with TRPV1 (Figure 2). […] To examine the relative importance of the four residues for mediating RTx sensitivity in the TRPV2 QM, we constructed triple mutants and evaluated their sensitivity to RTx electrophysiologically.
The full-length TRPV1 and TRPV2 channels with 1D4 affinity tags ([…]) on their C-termini were cloned into the YEpHIS vector and expressed in the BJ5457 strain of S. cerevisiae using the strong constitutively active PMA1 promoter, as previously described ([Moiseenkova-Bell et al., 2008]). After 48 hr of expression at 30°C in YPD media, cells were harvested by centrifugation and re-suspended in PBS buffer, supplemented with complete protease inhibitor cocktail (Roche, Indianapolis, IN) and 4-amidinophenylmethanesulfonyl fluoride hydrochloride (APMSF) (Sigma-Aldrich, St. Louis, MO). Cells were broken by passing through an Avestin homogenizer at the pressure of 35 kpsi, cell lysate was cleared by centrifugation at 8,000 g for 15 min and membranes were isolated by ultracentrifugation at 190,000 g for 1 hr. […]
S. cerevisiae cells overexpressing TRPV1 constructs to be used in ligand binding assays on intact cells (Figure 1E,F) were grown as for small scale expression trials. 24 hr after protein induction cells were spun down at 4000g, the supernatant was removed and the pellet resuspended in 1x PBS, normalizing OD600 to 75 for each sample, and aliquoted for storage at -80°C. ^3H-RTx binding assays on cells were performed at 37°C as previously described ([Feng et al., 2015]), but where non-specific binding of RTx was measured using cells expressing GFP alone. […] Data for binding of RTx to membranes was corrected for non-specific binding, determined using either excess non-radioactive ligand or heat inactivation of the protein, as previously described ([Feng et al., 2015]). […]

[2] = system: TRPV2 triple mutants containing the F472S mutation; assay: Two-electrode voltage-clamp in Xenopus oocytes, TRPV2 triple mutants containing F472S; format: cell-based, rat; settings: 100 nM RTx, +60 mV, normalized to 4 mM 2-APB
Text: To further investigate the putative vanilloid binding pocket in TRPV1, we inspected the cryo-EM structure of TRPV1, looking for residues that are located nearby to the putative RTx density (Figure 1B; regions/residues highlighted in yellow) and that differ between TRPV1 and TRPV2 channels (Figure 3—figure supplement 1; regions highlighted in magenta). […] To quantify the contribution of each of these residues to TRPV1 channel activation by RTx under our experimental conditions, we mutated each to the corresponding residue in TRPV2. We then expressed each construct in oocytes and used the two electrode voltage-clamp technique to study activation by RTx and by the non-specific TRPV channel activator 2-APB. We recorded time courses for channel activation by each agonist while stepping the membrane potential from −60 to +60 mV every 3 s from a holding potential of 0 mV using an external recording solution containing 100 mM KCl (internal K^+ concentration in a healthy oocyte is 100 mM) (Figure 3A, left). We also recorded current-voltage (I-V) relations by stepping over a wider range of voltages in the absence and presence of activators, or in the presence of ruthenium red (RR), a non-specific inhibitor of TRP channels (Figure 3A, right). […]

For C=C(C)[C@]12C[C@@H](C)[C@@]34O[C@](Cc5ccccc5)(O[C@@H]1[C@@H]3C=C(COC(=O)Cc1ccc(O)c(OC)c1)C[C@]1(O)C(=O)C(C)=C[C@@H]41)O2 [RTx, resiniferatoxin], which “affinity of RTx for TRPV2 QM lower compared to TRPV1” value [1] is on record?
The value was “about 30 fold”.

What about the “Hill slope (nH)” value ([1]; 37°C) of the same molecule?
The value was 1.7.

And the Kd ([1]; 37°C, read-out: Kd of 3H-RTx binding (Hill fit))?
The Kd was 18 nM.

And the “channel activation by RTx” value [2]?
The value was “sensitive to RTx”.
